{
  "source": "patent US20050010054A1",
  "about": "“Preparation of crystalline polymorphs of fosinopril sodium” (priority 2001, published 2005)",
  "key": {"[1]": {"experiment": "Hydration of the solid under air exposure", "conditions": "form B from methanol solutions evaporated in an atomizer at room temperature"}, "[2]": {"experiment": "Hydrolytic degradation in mixtures of ketonic or alcoholic solvents and water", "assay_type": "physicochemical", "conditions": "forms fosinoprilate, increases with time, higher temperature and higher water content", "from_the_text": "This hydrolytic degradation increases with time and with higher temperature and higher water content of the solvent."}, "[3]": {"conditions": "polymorph A versus polymorph B; as stated in EP-B-0442378; cited from earlier work"}},
  "data": [
    {"smiles": "CCC(=O)O[C@@H](O[P@](=O)(CCCCc1ccccc1)CC(=O)N1C[C@H](C2CCCCC2)C[C@H]1C(=O)[O-])C(C)C.[Na+]", "note": "[form B, sodium salt of fosinopril]", "values": [
      {"measurement": "hydration under air exposure", "setting": "[1]", "value": "spontaneously hydrated under air exposure"}
    ]},
    {"smiles": "CCC(=O)O[C@@H](O[P@](=O)(CCCCc1ccccc1)CC(=O)N1C[C@H](C2CCCCC2)C[C@H]1C(=O)[O-])C(C)C.[Na+]", "note": "[sodium fosinopril, sodium salt of fosinopril]", "values": [
      {"measurement": "hydrolytic stability in solution", "setting": "[2]", "value": "undergoes hydrolysis"}
    ]},
    {"smiles": "CCC(=O)O[C@@H](O[P@](=O)(CCCCc1ccccc1)CC(=O)N1C[C@H](C2CCCCC2)C[C@H]1C(=O)[O-])C(C)C.[Na+]", "note": "[polymorph A, sodium salt of fosinopril]", "values": [
      {"measurement": "relative thermodynamic stability of polymorphs", "setting": "[3]", "value": "more stable one from the thermodynamic point of view"}
    ]}
  ]
}
